Earlier results on two molecules are cited in patent US20210393522A1, “COMPOSITIONS FOR SOLUBILIZING WATER-INSOLUBLE ACTIVE INGREDIENTS” (priority 2020, published 2021).

For series [1] the following is noted: oil-based delivery systems; humans; Agurell 1981.

Turning to `C=C(C)[C@@H]1CCC(C)=C[C@H]1c1c(O)cc(CCCCC)cc1O` [CBD, cannabidiol], the “Share of total CBD absorbed” value in series [1] was 4%.
Regarding `CC(C)(Sc1cc(C(C)(C)C)c(O)c(C(C)(C)C)c1)Sc1cc(C(C)(C)C)c(O)c(C(C)(C)C)c1` [Probucol, 4,4′-[Propane-2,2-diylbis(thio)]bis(2,6-di-tert-butylphenol)], the Solubility in water is reported as 5 nanograms per ml.
